Results published in US6703485B2, “Brain and heart cyclic nucleotide gated ion channel compounds and uses thereof” (The Trustees of Columbia University in the City of New York, priority 1997, dated 2004).
Values joined by “and” are separate entries in the source; they are usually repeats but may differ in a detail not shown here. Equal values may be shown once.

Key:
[1] = tested on: Pacemaker channel; conditions: myocardial ischemia, Schlack et al., 1998; cited from earlier work
[2] = target: T1, mBCNG-1 channel (Mus musculus, UniProt O88704); format: biochemical
T1 construct: expressed in transfected cells; host or cells: Xenopus oocytes injected with cRNA (pSD64TR vector, SP6 transcript); cell-free inside-out and outside-out patches

[3] = tested on: Ih in hippocampal neurons; conditions: Pedarzani and Storm, 1995; cited from earlier work
[4] = tested on: If in sino-atrial node; conditions: DiFrancesco and Tortora, 1991; cited from earlier work
[5] = tested on: Ih in sensory neurons; conditions: Ingram and Williams; cited from earlier work
[6] = target: T2, bovine photoreceptor CNG channels (Bos taurus, UniProt Q00194); conditions: Kramer and Tibbs, 1996; cited from earlier work
T2 sequence (Q00194 1-690): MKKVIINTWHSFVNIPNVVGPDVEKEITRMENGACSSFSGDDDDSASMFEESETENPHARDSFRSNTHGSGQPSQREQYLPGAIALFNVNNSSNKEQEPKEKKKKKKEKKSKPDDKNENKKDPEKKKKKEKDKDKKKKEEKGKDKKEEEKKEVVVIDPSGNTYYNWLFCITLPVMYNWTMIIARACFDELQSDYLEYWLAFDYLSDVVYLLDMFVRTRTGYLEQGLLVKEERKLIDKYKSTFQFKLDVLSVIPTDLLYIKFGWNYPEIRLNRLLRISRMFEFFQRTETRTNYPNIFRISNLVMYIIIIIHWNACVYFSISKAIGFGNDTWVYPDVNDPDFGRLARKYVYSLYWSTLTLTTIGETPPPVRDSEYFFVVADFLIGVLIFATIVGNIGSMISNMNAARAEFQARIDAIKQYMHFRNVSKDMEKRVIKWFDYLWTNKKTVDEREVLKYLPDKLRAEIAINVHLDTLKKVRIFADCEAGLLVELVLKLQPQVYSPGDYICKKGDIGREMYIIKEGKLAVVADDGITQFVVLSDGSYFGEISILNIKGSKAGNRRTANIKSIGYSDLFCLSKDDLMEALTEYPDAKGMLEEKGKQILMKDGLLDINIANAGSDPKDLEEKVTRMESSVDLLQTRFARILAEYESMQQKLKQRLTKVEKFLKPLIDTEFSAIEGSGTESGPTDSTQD

T1 sequence (O88704 whole entry): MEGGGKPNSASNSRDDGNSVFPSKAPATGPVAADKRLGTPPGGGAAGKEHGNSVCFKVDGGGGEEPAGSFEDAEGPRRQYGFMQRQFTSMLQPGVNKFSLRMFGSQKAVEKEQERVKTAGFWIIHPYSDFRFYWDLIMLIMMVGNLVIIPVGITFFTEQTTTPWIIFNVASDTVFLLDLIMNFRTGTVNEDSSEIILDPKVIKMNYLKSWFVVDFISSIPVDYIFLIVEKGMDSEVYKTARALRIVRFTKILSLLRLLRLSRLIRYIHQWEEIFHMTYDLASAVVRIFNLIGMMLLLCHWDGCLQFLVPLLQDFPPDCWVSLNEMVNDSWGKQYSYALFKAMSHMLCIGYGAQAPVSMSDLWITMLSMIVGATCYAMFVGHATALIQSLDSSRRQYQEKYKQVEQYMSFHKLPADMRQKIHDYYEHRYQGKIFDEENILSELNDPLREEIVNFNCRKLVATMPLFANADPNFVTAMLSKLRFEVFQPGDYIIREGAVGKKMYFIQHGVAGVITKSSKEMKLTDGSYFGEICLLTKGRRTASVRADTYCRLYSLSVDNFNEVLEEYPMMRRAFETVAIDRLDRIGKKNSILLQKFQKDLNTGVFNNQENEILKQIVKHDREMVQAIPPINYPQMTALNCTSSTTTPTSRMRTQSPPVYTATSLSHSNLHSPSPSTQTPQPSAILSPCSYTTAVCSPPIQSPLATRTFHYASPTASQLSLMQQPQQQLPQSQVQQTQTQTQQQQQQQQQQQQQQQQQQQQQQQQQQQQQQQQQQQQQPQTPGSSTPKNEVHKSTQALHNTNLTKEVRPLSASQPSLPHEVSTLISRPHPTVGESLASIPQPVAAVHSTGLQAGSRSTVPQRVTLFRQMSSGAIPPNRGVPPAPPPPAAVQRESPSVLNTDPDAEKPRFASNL

For CCN(c1ccccc1)c1cc(=NC)n(C)c(C)n1.Cl [ZD 7288], the “Effect on infarct size” value [1] is listed as “reduce infarct size”.
With [Cl-].[Cs+] [Cs] the “% inhibition of mBCNG-1 current” value [2] was 92.4±2.5%, the “Hill coefficient for inhibition of mBCNG-1 current by Cs” value [2] was ~1 and 1.08 and the IC50 ([2]; read-out: IC50 for inhibition of mBCNG-1 current by Cs) was ~200 µM and 201 µM.
With [Ba+2] [Ba] the “mean percent inhibition of mBCNG-1 current” value ([2]; 1 mM Ba in external solution, outside-out patch, n=3) was 0±5%.
For Nc1ncnc2c1ncn2[C@@H]1O[C@@H]2COP(=O)(O)O[C@H]2[C@H]1O [cAMP], the “cAMP-dependent shift of Ih” value [3] is listed as 2-3 mV, the “cAMP-dependent shift of If” value [4] is listed as 10 mV and the “cAMP-dependent shift of Ih” value [5] is listed as 4-6 mV.
In the case of Nc1nc2c(ncn2[C@@H]2O[C@@H]3COP(O)(=S)O[C@H]3[C@H]2O)c(=O)[nH]1 (stereo partly shown) [Sp-cGMPS], the “Effect on channel opening” value [6] is listed as “agonist”.
For Nc1nc2c(ncn2[C@@H]2O[C@@H]3COP(O)(=S)O[C@H]3[C@H]2O)c(=O)[nH]1 (stereo partly shown) [Rp-cGMPS], the “Effect on channel opening” value [6] is listed as “antagonist of channel opening”.
